Among the data in PubChem BioAssay AID1259411 (Chemical Carcinogenesis Research Information System (CCRIS), 2018) are carcinogen call values, retold here.

Active and inactive are the calls of the source. No rule for the calls is given here.

The subject of the data set is rodent carcinogenicity bioassays, tumor incidence. Kind of data set: CCRIS carcinogenicity studies. The procedure, abridged: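 Archive of carcinogenicity, mutagenicity, tumor promotion and tumor inhibition results drawn from journals, NCI reports and other sources, expert-reviewed; covers 1985-2011 and is no longer updated.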

As for `OC(O)C(Cl)(Cl)Cl`, the carcinogen call (Species: MOUSE, Strain/Sex: B6C3F1/FEMALE, Route: GAVAGE, Dose: 0, 10, 25, 50 MG/KG BW ONCE AT 15 DAYS OF AGE (STUDY DURATION: 104 WK), Dose: 0, 10, 25, 50 MG/KG BW ONCE AT 15 DAYS OF AGE (STUDY DURATION: 104 WK)) is “inactive; negative”; the carcinogen call (Species: MOUSE, Strain/Sex: B6C3F1/FEMALE, Route: GAVAGE, Dose: 0, 25, 50, 100 MG/KG 5 D/WK FOR 104 WK (STUDY DURATION: 104 WK), Dose: 0, 25, 50, 100 MG/KG 5 D/WK FOR 104 WK (STUDY DURATION: 104 WK), Tumor Site: Type of Lesion: PITUITARY GLAND (PARS DISTALIS): ADENOMA) is given as “equivocal”; the carcinogen call (Species: MOUSE, Strain/Sex: B6C3F1/FEMALE, Route: GAVAGE, Dose: 0, 25, 50, 100 MG/KG BW ONCE AT 28 DAYS OF AGE (STUDY DURATION: 104 WK), Dose: 0, 25, 50, 100 MG/KG BW ONCE AT 28 DAYS OF AGE (STUDY DURATION: 104 WK)) was “inactive; negative”; the carcinogen call (Species: MOUSE, Strain/Sex: B6C3F1/FEMALE, Route: GAVAGE, Dose: 0, 100 MG/KG BW 5 D/WK FOR 3 MO (STUDY DURATION: 104 WK), Tumor Site: Type of Lesion: PITUITARY GLAND (PARS DISTALIS): ADENOMA) is reported as “equivocal”; the carcinogen call (Species: MOUSE, Strain/Sex: B6C3F1/FEMALE, Route: GAVAGE, Dose: 0, 100 MG/KG BW 5 D/WK FOR 6 MO (STUDY DURATION: 104 WK), Tumor Site: Type of Lesion: PITUITARY GLAND (PARS DISTALIS): ADENOMA) was “equivocal”; the carcinogen call (Species: MOUSE, Strain/Sex: B6C3F1/FEMALE, Route: GAVAGE, Dose: 0, 100 MG/KG BW 5 D/WK FOR 12 MO (STUDY DURATION: 104 WK), Tumor Site: Type of Lesion: PITUITARY GLAND (PARS DISTALIS): ADENOMA) is reported as “equivocal”. In addition, the carcinogen call reads like this: (Species: MOUSE, Strain/Sex: B6C3F1/FEMALE, Route: INTRAPERITONEAL, Dose: 0, 1000 NMOL TOTAL DOSE, 1/3 AND 2/3 OF THE TOTAL DOSE ADMINISTERED AT 8 AND 15 DAYS OF AGE RESPECTIVELY, ANIMALS TERMIN) “inactive; negative”; (Species: MOUSE, Strain/Sex: B6C3F1/FEMALE, Route: INTRAPERITONEAL, Dose: 0, 2000 NMOL TOTAL DOSE, 3/7 AND 4/7 OF THE TOTAL DOSE ADMINISTERED AT 8 AND 15 DAYS OF AGE RESPECTIVELY, ANIMALS TERMIN) “inactive; negative”; (Species: MOUSE, Strain/Sex: B6C3F1/MALE, Route: GAVAGE, Dose: 0, 10, 25, 50 MG/KG BW ONCE AT 15 DAYS OF AGE (STUDY DURATION: 104 WK), Dose: 0, 10, 25, 50 MG/KG BW ONCE AT 15 DAYS OF AGE (STUDY DURATION: 104 WK)) “inactive; negative”; (Species: MOUSE, Strain/Sex: B6C3F1/MALE, Route: GAVAGE, Dose: 0, 25, 50, 100 MG/KG IN WATER 5X/WK FOR STUDY DURATION WITH AD LIBITUM FEEDING (STUDY DURATION: 104-105 WK), Dose: 0, 25, 50, 100 MG/KG IN WATER 5X/WK FOR STUDY DURATION WITH AD LIBITUM FEEDING (STUDY DURATION: 104-105 WK), Tumor Site: Type of Lesion: LIVER: HEPATOCELLULAR ADENOMA OR CARCINOMA) “active; positive”; (Species: MOUSE, Strain/Sex: B6C3F1/MALE, Route: GAVAGE, Dose: 0, 25, 50, 100 MG/KG IN WATER 5X/WK FOR STUDY DURATION WITH DIETARY-CONTROLLED FEEDING TO MAINTAIN IDEAL BODY WEIGHT (ST, Dose: 0, 25, 50, 100 MG/KG IN WATER 5X/WK FOR STUDY DURATION WITH DIETARY-CONTROLLED FEEDING TO MAINTAIN IDEAL BODY WEIGHT (ST, Tumor Site: Type of Lesion: LIVER: HEPATOCELLULAR ADENOMA OR CARCINOMA) “active; positive”; (Species: MOUSE, Strain/Sex: B6C3F1/MALE, Route: INTRAPERITONEAL, Dose: 0, 1000 NMOL TOTAL DOSE, 1/3 AND 2/3 OF THE TOTAL DOSE ADMINISTERED AT 8 AND 15 DAYS OF AGE RESPECTIVELY, ANIMALS TERMIN) “inactive; negative”. The carcinogen call was “inactive; negative” (Species: MOUSE, Strain/Sex: B6C3F1/MALE, Route: INTRAPERITONEAL, Dose: 0, 2000 NMOL TOTAL DOSE, 3/7 AND 4/7 OF THE TOTAL DOSE ADMINISTERED AT 8 AND 15 DAYS OF AGE RESPECTIVELY, ANIMALS TERMIN); “active; positive” (Species: MOUSE, Strain/Sex: B6C3F1/MALE, Route: ORAL, Dose: 0, 0.05, 0.5, 1 G/L IN DRINKING WATER FOR 104 WK (STUDY DURATION: 104 WK), Dose: 0, 0.05, 0.5, 1 G/L IN DRINKING WATER FOR 104 WK (STUDY DURATION: 104 WK), Tumor Site: Type of Lesion: LIVER: HEPATOCELLULAR ADENOMA OR CARCINOMA); “active; positive” (Species: MOUSE, Strain/Sex: B6C3F1/MALE, Route: ORAL, Dose: 0, 1 G/L DISTILLED DRINKING WATER FOR STUDY DURATION (166 MG/KG/D) (STUDY DURATION: 104 WK), Tumor Site: Type of Lesion: LIVER: HEPATOCELLULAR CARCINOMA, HEPATOCELLULAR ADENOMA); “inactive; negative” (Species: RAT, Strain/Sex: F344/N/MALE, Route: ORAL, Dose: 0, 0.05, 0.5, 2 G/L IN DRINKING WATER FOR 104 WK (STUDY DURATION: 104 WK), Dose: 0, 0.05, 0.5, 2 G/L IN DRINKING WATER FOR 104 WK (STUDY DURATION: 104 WK)); “inactive; negative” (Species: RAT, Strain/Sex: SPRAGUE-DAWLEY/FEMALE, Route: ORAL, Dose: 0, 15, 45, 135 MG/KG BW/D IN DRINKING WATER FOR 128 WK (STUDY DURATION: 128 WK), Dose: 0, 15, 45, 135 MG/KG BW/D IN DRINKING WATER FOR 128 WK (STUDY DURATION: 128 WK)); “inactive; negative” (Species: RAT, Strain/Sex: SPRAGUE-DAWLEY/MALE, Route: ORAL, Dose: 0, 15, 45, 135 MG/KG BW/D IN DRINKING WATER FOR 124 WK (STUDY DURATION: 124 WK), Dose: 0, 15, 45, 135 MG/KG BW/D IN DRINKING WATER FOR 124 WK (STUDY DURATION: 124 WK)).

Consider `O=[N+]([O-])c1ccc(OC2CO2)cc1` (stereo not drawn), for which, where the note is “Species: MOUSE, Strain/Sex: B6C3F1/MALE, Route: INTRAPERITONEAL, Dose: 0, 60 NMOL/G BW IN 10 µL TRIOCTANOIN ONCE (STUDY DURATION: 10 MO), Tumor Site: Type of Lesion: LIVER: HEPATOMA”, the carcinogen call is “active; positive”.

For `C/C=C1/C[C@@H](C)[C@@](C)(O)C(=O)OC/C2=C/CN(C)CC[C@@H](OC1=O)C2=O`, the carcinogen call (Species: RAT, Strain/Sex: ACI/MALE, Route: INTRAPERITONEAL, Dose: 22 MG/KG IN SALINE 2/WK FOR 4 WK, THEN 1/WK FOR 52 WK, Tumor Site: Type of Lesion: LIVER: ADENOMA) was “active; positive”.

As for `O=[N+]([O-])c1ccc(-c2ccccc2)cc1`, the carcinogen call was “active; positive” (Species: DOG, Strain/Sex: MONGREL/FEMALE, Route: ORAL, Dose: 300 MG 3/WK FOR LIFE, Tumor Site: Type of Lesion: URINARY BLADDER: EPITHELIAL CARCINOMA); “inactive; negative” (Species: RAT, Strain/Sex: SPRAGUE-DAWLEY/FEMALE, Route: SUBCUTANEOUS, Dose: 0, 50, 100 UMOL/KG IN DMSO 1/WK FOR 8 WK (STUDY DURATION: 62 WK), Dose: 0, 50, 100 UMOL/KG IN DMSO 1/WK FOR 8 WK (STUDY DURATION: 62 WK)); “inactive; negative” (Species: RAT, Strain/Sex: SPRAGUE-DAWLEY/MALE, Route: SUBCUTANEOUS, Dose: 0, 50, 100 UMOL/KG IN DMSO 1/WK FOR 8 WK (STUDY DURATION: 62 WK), Dose: 0, 50, 100 UMOL/KG IN DMSO 1/WK FOR 8 WK (STUDY DURATION: 62 WK)).
